Values quoted from earlier work as cited in patent publication US20230285409A1, “METHODS OF USING RHO KINASE INHIBITORS TO TREAT VASCULAR DEMENTIA” (Woolsey Pharmaceuticals, Inc., priority 2020, published 2023).
Counter-ions that a name gives are not always drawn.

How the values were obtained:
[1] = in vivo, 1-hydroxy metabolite; cited from earlier work
[2] = molecular target: p38 mitogen-activated protein kinase (Homo sapiens, UniProt Q16539); details: cited from earlier work
[3] = system: triple transgenic mouse model (APP Swedish, MAPT P301L, and PSEN1 M146V); details: 10 mg/kg/day intraperitoneally; cited from earlier work
[4] = system: triple transgenic mice; details: 30 mg/kg and 100 mg/kg in water, 10 or 12 months of age; cited from earlier work
[5] = system: VaD patients; details: cited from earlier work
[6] = system: patients with wandering due to VaD; details: cited from earlier work
[7] = system: APP/PS1 transgenic mice; details: 5 and 10 mg/kg/day intraperitoneally; cited from earlier work
[8] = system: streptozotocin rats; details: 5 and 10 mg/kg/day intraperitoneally; cited from earlier work

p38 mitogen-activated protein kinase, sequence (Q16539 whole entry): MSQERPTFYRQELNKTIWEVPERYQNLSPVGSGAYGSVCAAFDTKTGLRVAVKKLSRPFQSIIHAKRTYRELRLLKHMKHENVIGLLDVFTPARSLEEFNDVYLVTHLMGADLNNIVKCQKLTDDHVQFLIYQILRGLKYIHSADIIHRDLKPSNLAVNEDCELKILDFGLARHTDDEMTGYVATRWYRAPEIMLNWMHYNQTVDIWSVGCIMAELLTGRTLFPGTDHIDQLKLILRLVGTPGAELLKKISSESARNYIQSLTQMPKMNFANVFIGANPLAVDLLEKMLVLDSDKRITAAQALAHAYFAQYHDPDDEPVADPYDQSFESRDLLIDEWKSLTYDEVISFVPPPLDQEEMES

## O=S(=O)(c1cccc2c(O)nccc12)N1CCCNCC1 [M3]
[1]
  half-life: about 8 hours

## O=c1ncn2nc(Sc3ccc(F)cc3F)ccc2c1-c1c(Cl)cccc1Cl [Neflamapimod]
[2]; Phase 2
  primary endpoint of improving episodic memory: failed its primary endpoint
  tau in the cerebrospinal fluid: reducing tau
[2]; in humans
  Aβ deposition: no effect on Aβ deposition

## O=S(=O)(c1cccc2cnccc12)N1CCCNCC1 [fasudil, Hexahydro-1-(5-Isoquinolinesulfonyl)-1H-1,4-Diazepine Monohydrochloride Hemihydrate]
[3]
  ß-amyloid plaques in vivo: reduce ß-amyloid plaques
[4]
  spatial memory: did not observe improvements in spatial memory
[5]; 30 mg iv daily, control intravenous ligustrazine
  MMSE differential versus control: 7 point
[5]; 30 mg iv infusion daily, 2 weeks, 2 days off, 2 more weeks, mean or median unclear
  improvement in MMSE over baseline: 9 point
[5]; after treatment, baseline 54, >26 functionally impaired
  ADL score after treatment: 36
[5]; after treatment, baseline mean about 17
  MMSE score after treatment: ~27
[6]; 30 mg and 60 mg per day, case studies
  cognitive improvements (MMSE): about 3 points
[6]; 30 mg and 60 mg per day
  dose response: no dose response
[6]; case studies
  spatial orientation: no improvement in spatial orientation
[6]; patient with Binswanger-type cerebral infarction, within weeks of beginning treatment
  wandering symptoms: wandering symptoms disappeared
[7]
  latency distance and quadrant time in the Morris water maze: improved
[8]
  latency distance and quadrant time in the Morris water maze: improved
